Measurements reported in US10227344B2, “CK2 inhibitors, compositions and methods thereof” (Polaris Pharmaceuticals, Inc., priority 2016, dated 2019).

Columns and labels:
Format in all cases: cell-based
MDA-MB-453 = test: Cancer cell panel, cell viability (resazurin): Breast, MDA-MB-453; conditions: MDA-MB-453 (Breast), 72 hours; labelled drug combined with Example 3
Description: (§1) Cells were plated in 96-well plates and treated for 72 hours with a serially diluted CK2 inhibitor or anti-cancer drug or their combination. The suspension cell lines were treated right after plating, while the adherent cells were allowed to attach overnight prior to the start of the treatment.
(§2) Cell viability was determined by adding resazurin to cell cultures and measuring fluorescence with a plate reader. Relative cell viability was calculated by dividing the cell viability signal from a test sample by that of a non-treated control. […] Bliss Independence and Highest Single Agent models were used to determine if there is synergy, additivity or antagonism between the CK2 inhibitor and an anti-cancer drug.

786-O = test: Cancer cell panel, cell viability (resazurin): Renal, 786-O; conditions: 786-O (Renal), 72 hours; labelled drug combined with Example 3
SkBr-3 = test: Cancer cell panel, cell viability (resazurin): Breast, SkBr-3; conditions: SkBr-3 (Breast), 72 hours; labelled drug combined with Example 3
Description: as §1, §2

HL60 = test: Cancer cell panel, cell viability (resazurin): Leukemia, HL60; conditions: 72 hours, labelled drug combined with Example 3
SK-MEL-3 = test: Cancer cell panel, cell viability (resazurin): Melanoma, SK-MEL-3; conditions: SK-MEL-3 (Melanoma), 72 hours; labelled drug combined with Example 3
Caki-2 = test: Cancer cell panel, cell viability (resazurin): Renal, Caki-2; conditions: Caki-2 (Renal), 72 hours; labelled drug combined with Example 3
LnCap = test: Cancer cell panel, cell viability (resazurin): Prostate, LnCap; conditions: 72 hours, labelled drug combined with Example 3
Description: as §1, §2

SK-MEL-24 = test: Cancer cell panel, cell viability (resazurin): Melanoma, SK-MEL-24; conditions: SK-MEL-24 (Melanoma), 72 hours; labelled drug combined with Example 3
Description: as §1, §2

Mia-Paca-2 = test: Cancer cell panel, cell viability (resazurin): Pancreatic, Mia-Paca-2; conditions: Mia-Paca-2 (Pancreatic), 72 hours; labelled drug combined with Example 3
H1299 = test: Cancer cell panel, cell viability (resazurin): NSCLC, H1299; conditions: 72 hours, labelled drug combined with Example 3
Description: as §1, §2

NAMALWA = test: Cancer cell panel, cell viability (resazurin): Burkitt's Lymphoma, NAMALWA; conditions: 72 hours, labelled drug combined with Example 3
Description: as §1, §2

MDA-MB-157 = test: Cancer cell panel, cell viability (resazurin): Breast, MDA-MB-157; conditions: MDA-MB-157 (Breast), 72 hours; labelled drug combined with Example 3
Caki-1 = test: Cancer cell panel, cell viability (resazurin): Renal, Caki-1; conditions: Caki-1 (Renal), 72 hours; labelled drug combined with Example 3
MOLT4 = test: Cancer cell panel, cell viability (resazurin): Leukemia, MOLT4; conditions: 72 hours, labelled drug combined with Example 3
Description: as §1, §2

DLD-1 = test: Cancer cell panel, cell viability (resazurin): Colon, DLD-1; conditions: DLD-1 (Colon), 72 hours; labelled drug combined with Example 3
Description: as §1, §2

BxPC3 = test: Cancer cell panel, cell viability (resazurin): Pancreatic, BxPC3; conditions: 72 hours, labelled drug combined with Example 3
MeWO = test: Cancer cell panel, cell viability (resazurin): Melanoma, MeWO; conditions: 72 hours, labelled drug combined with Example 3
EOL-1 = test: Cancer cell panel, cell viability (resazurin): Leukemia, EOL-1; conditions: EOL-1 (Leukemia), 72 hours; labelled drug combined with Example 3
A375 = test: Cancer cell panel, cell viability (resazurin): Melanoma, A375; conditions: 72 hours, labelled drug combined with Example 3
T47D = test: Cancer cell panel, cell viability (resazurin): Breast, T47D; conditions: 72 hours, labelled drug combined with Example 3
Caov-3 = test: Cancer cell panel, cell viability (resazurin): Ovarian, Caov-3; conditions: Caov-3 (Ovarian), 72 hours; labelled drug combined with Example 3
Description: as §1, §2

Raji = test: Cancer cell panel, cell viability (resazurin): Burkitt's Lymphoma, Raji; conditions: 72 hours, labelled drug combined with Example 3
U266 = test: Cancer cell panel, cell viability (resazurin): multiple myeloma, U266; conditions: 72 hours, labelled drug combined with Example 3
LoVo = test: Cancer cell panel, cell viability (resazurin): Colon, LoVo; conditions: 72 hours, labelled drug combined with Example 3
A2780 = test: Cancer cell panel, cell viability (resazurin): Ovarian, A2780; conditions: 72 hours, labelled drug combined with Example 3
WM-115 = test: Cancer cell panel, cell viability (resazurin): Melanoma, WM-115; conditions: WM-115 (Melanoma), 72 hours; labelled drug combined with Example 3
H1975 = test: Cancer cell panel, cell viability (resazurin): NSCLC, H1975; conditions: 72 hours, labelled drug combined with Example 3
Description: as §1, §2

A549 = test: Cancer cell panel, cell viability (resazurin): NSCLC, A549; conditions: 72 hours, labelled drug combined with Example 3
HCT116 = test: Cancer cell panel, cell viability (resazurin): Colon, HCT116; conditions: 72 hours, labelled drug combined with Example 3
Description: as §1, §2

ACHN = test: Cancer cell panel, cell viability (resazurin): Renal, ACHN; conditions: 72 hours, labelled drug combined with Example 3
H460 = test: Cancer cell panel, cell viability (resazurin): NSCLC, H460; conditions: 72 hours, labelled drug combined with Example 3
Description: as §1, §2

Panc-1 = test: Cancer cell panel, cell viability (resazurin): Pancreatic, Panc-1; conditions: Panc-1 (Pancreatic), 72 hours; labelled drug combined with Example 3
Description: as §1, §2

Colo205 = test: Cancer cell panel, cell viability (resazurin): Colon, Colo205; conditions: 72 hours, labelled drug combined with Example 3
H23 = test: Cancer cell panel, cell viability (resazurin): NSCLC, H23; conditions: 72 hours, labelled drug combined with Example 3
BT-20 = test: Cancer cell panel, cell viability (resazurin): Breast, BT-20; conditions: BT-20 (Breast), 72 hours; labelled drug combined with Example 3
Description: as §1, §2

PC3 = test: Cancer cell panel, cell viability (resazurin): Prostate, PC3; conditions: 72 hours, labelled drug combined with Example 3
Description: as §1, §2

H2122 = test: Cancer cell panel, cell viability (resazurin): NSCLC, H2122; conditions: 72 hours, labelled drug combined with Example 3
U87MG = test: Cancer cell panel, cell viability (resazurin): Glioblastoma, U87MG; conditions: 72 hours, labelled drug combined with Example 3
Description: as §1, §2

MDA-MB-231 = test: Cancer cell panel, cell viability (resazurin): Breast, MDA-MB-231; conditions: MDA-MB-231 (Breast), 72 hours; labelled drug combined with Example 3
Description: as §1, §2

ZR-75-1 = test: Cancer cell panel, cell viability (resazurin): Breast, ZR-75-1; conditions: ZR-75-1 (Breast), 72 hours; labelled drug combined with Example 3
Daudi = test: Cancer cell panel, cell viability (resazurin): Burkitt's Lymphoma, Daudi; conditions: 72 hours, labelled drug combined with Example 3
Description: as §1, §2

SKOV-3 = test: Cancer cell panel, cell viability (resazurin): Ovarian, SKOV-3; conditions: SKOV-3 (Ovarian), 72 hours; labelled drug combined with Example 3

## N.N.[Cl][Pt][Cl] [Cisplatin, cisplatin]
MDA-MB-453
  synergy, additivity or antagonism of the combination of Example 3 with the anti-cancer drug: + + (Slight synergy relative to each agent alone (CI = 0.75-0.9 by Bliss Independence Model))
786-O
  synergy, additivity or antagonism of the combination of Example 3 with the anti-cancer drug: + + (Slight synergy relative to each agent alone (CI = 0.75-0.9 by Bliss Independence Model))
SkBr-3
  synergy, additivity or antagonism of the combination of Example 3 with the anti-cancer drug: + + (Slight synergy relative to each agent alone (CI = 0.75-0.9 by Bliss Independence Model))
HL60
  synergy, additivity or antagonism of the combination of Example 3 with the anti-cancer drug: + (Additive relative to each agent alone (CI = 0.9-1 by Bliss Independence Model and <0.9 by Highest Single Agent Model))
SK-MEL-3
  synergy, additivity or antagonism of the combination of Example 3 with the anti-cancer drug: + (Additive relative to each agent alone (CI = 0.9-1 by Bliss Independence Model and <0.9 by Highest Single Agent Model))
Caki-2
  synergy, additivity or antagonism of the combination of Example 3 with the anti-cancer drug: + (Additive relative to each agent alone (CI = 0.9-1 by Bliss Independence Model and <0.9 by Highest Single Agent Model))
LnCap
  synergy, additivity or antagonism of the combination of Example 3 with the anti-cancer drug: + + (Slight synergy relative to each agent alone (CI = 0.75-0.9 by Bliss Independence Model))
SK-MEL-24
  synergy, additivity or antagonism of the combination of Example 3 with the anti-cancer drug: + + (Slight synergy relative to each agent alone (CI = 0.75-0.9 by Bliss Independence Model))
Mia-Paca-2
  synergy, additivity or antagonism of the combination of Example 3 with the anti-cancer drug: + (Additive relative to each agent alone (CI = 0.9-1 by Bliss Independence Model and <0.9 by Highest Single Agent Model))
H1299
  synergy, additivity or antagonism of the combination of Example 3 with the anti-cancer drug: + (Additive relative to each agent alone (CI = 0.9-1 by Bliss Independence Model and <0.9 by Highest Single Agent Model))
NAMALWA
  synergy, additivity or antagonism of the combination of Example 3 with the anti-cancer drug: + (Additive relative to each agent alone (CI = 0.9-1 by Bliss Independence Model and <0.9 by Highest Single Agent Model))
MDA-MB-157
  synergy, additivity or antagonism of the combination of Example 3 with the anti-cancer drug: + + + (Synergy relative to each agent alone (CI = 0.4-0.74 by Bliss Independence Model))
Caki-1
  synergy, additivity or antagonism of the combination of Example 3 with the anti-cancer drug: + (Additive relative to each agent alone (CI = 0.9-1 by Bliss Independence Model and <0.9 by Highest Single Agent Model))
MOLT4
  synergy, additivity or antagonism of the combination of Example 3 with the anti-cancer drug: + + (Slight synergy relative to each agent alone (CI = 0.75-0.9 by Bliss Independence Model))
DLD-1
  synergy, additivity or antagonism of the combination of Example 3 with the anti-cancer drug: + (Additive relative to each agent alone (CI = 0.9-1 by Bliss Independence Model and <0.9 by Highest Single Agent Model))
BxPC3
  synergy, additivity or antagonism of the combination of Example 3 with the anti-cancer drug: + (Additive relative to each agent alone (CI = 0.9-1 by Bliss Independence Model and <0.9 by Highest Single Agent Model))
MeWO
  synergy, additivity or antagonism of the combination of Example 3 with the anti-cancer drug: + (Additive relative to each agent alone (CI = 0.9-1 by Bliss Independence Model and <0.9 by Highest Single Agent Model))
EOL-1
  synergy, additivity or antagonism of the combination of Example 3 with the anti-cancer drug: + + (Slight synergy relative to each agent alone (CI = 0.75-0.9 by Bliss Independence Model))
A375
  synergy, additivity or antagonism of the combination of Example 3 with the anti-cancer drug: + + (Slight synergy relative to each agent alone (CI = 0.75-0.9 by Bliss Independence Model))
T47D
  synergy, additivity or antagonism of the combination of Example 3 with the anti-cancer drug: + (Additive relative to each agent alone (CI = 0.9-1 by Bliss Independence Model and <0.9 by Highest Single Agent Model))
Caov-3
  synergy, additivity or antagonism of the combination of Example 3 with the anti-cancer drug: + (Additive relative to each agent alone (CI = 0.9-1 by Bliss Independence Model and <0.9 by Highest Single Agent Model))
Raji
  synergy, additivity or antagonism of the combination of Example 3 with the anti-cancer drug: + + (Slight synergy relative to each agent alone (CI = 0.75-0.9 by Bliss Independence Model))
U266
  synergy, additivity or antagonism of the combination of Example 3 with the anti-cancer drug: + (Additive relative to each agent alone (CI = 0.9-1 by Bliss Independence Model and <0.9 by Highest Single Agent Model))
LoVo
  synergy, additivity or antagonism of the combination of Example 3 with the anti-cancer drug: + + (Slight synergy relative to each agent alone (CI = 0.75-0.9 by Bliss Independence Model))
A2780
  synergy, additivity or antagonism of the combination of Example 3 with the anti-cancer drug: + + + + (Strong synergy relative to each agent alone (CI < 0.4 by Bliss Independence Model))
WM-115
  synergy, additivity or antagonism of the combination of Example 3 with the anti-cancer drug: + + (Slight synergy relative to each agent alone (CI = 0.75-0.9 by Bliss Independence Model))
H1975
  synergy, additivity or antagonism of the combination of Example 3 with the anti-cancer drug: + (Additive relative to each agent alone (CI = 0.9-1 by Bliss Independence Model and <0.9 by Highest Single Agent Model))
A549
  synergy, additivity or antagonism of the combination of Example 3 with the anti-cancer drug: + + + + (Strong synergy relative to each agent alone (CI < 0.4 by Bliss Independence Model))
HCT116
  synergy, additivity or antagonism of the combination of Example 3 with the anti-cancer drug: + (Additive relative to each agent alone (CI = 0.9-1 by Bliss Independence Model and <0.9 by Highest Single Agent Model))
ACHN
  synergy, additivity or antagonism of the combination of Example 3 with the anti-cancer drug: + (Additive relative to each agent alone (CI = 0.9-1 by Bliss Independence Model and <0.9 by Highest Single Agent Model))
H460
  synergy, additivity or antagonism of the combination of Example 3 with the anti-cancer drug: + + (Slight synergy relative to each agent alone (CI = 0.75-0.9 by Bliss Independence Model))
Panc-1
  synergy, additivity or antagonism of the combination of Example 3 with the anti-cancer drug: + (Additive relative to each agent alone (CI = 0.9-1 by Bliss Independence Model and <0.9 by Highest Single Agent Model))
Colo205
  synergy, additivity or antagonism of the combination of Example 3 with the anti-cancer drug: + + (Slight synergy relative to each agent alone (CI = 0.75-0.9 by Bliss Independence Model))
H23
  synergy, additivity or antagonism of the combination of Example 3 with the anti-cancer drug: + + + (Synergy relative to each agent alone (CI = 0.4-0.74 by Bliss Independence Model))
BT-20
  synergy, additivity or antagonism of the combination of Example 3 with the anti-cancer drug: + + (Slight synergy relative to each agent alone (CI = 0.75-0.9 by Bliss Independence Model))
PC3
  synergy, additivity or antagonism of the combination of Example 3 with the anti-cancer drug: + (Additive relative to each agent alone (CI = 0.9-1 by Bliss Independence Model and <0.9 by Highest Single Agent Model))
H2122
  synergy, additivity or antagonism of the combination of Example 3 with the anti-cancer drug: + + (Slight synergy relative to each agent alone (CI = 0.75-0.9 by Bliss Independence Model))
U87MG
  synergy, additivity or antagonism of the combination of Example 3 with the anti-cancer drug: + (Additive relative to each agent alone (CI = 0.9-1 by Bliss Independence Model and <0.9 by Highest Single Agent Model))
MDA-MB-231
  synergy, additivity or antagonism of the combination of Example 3 with the anti-cancer drug: + (Additive relative to each agent alone (CI = 0.9-1 by Bliss Independence Model and <0.9 by Highest Single Agent Model))
ZR-75-1
  synergy, additivity or antagonism of the combination of Example 3 with the anti-cancer drug: + (Additive relative to each agent alone (CI = 0.9-1 by Bliss Independence Model and <0.9 by Highest Single Agent Model))
Daudi
  synergy, additivity or antagonism of the combination of Example 3 with the anti-cancer drug: + (Additive relative to each agent alone (CI = 0.9-1 by Bliss Independence Model and <0.9 by Highest Single Agent Model))
SKOV-3
  synergy, additivity or antagonism of the combination of Example 3 with the anti-cancer drug: + (Additive relative to each agent alone (CI = 0.9-1 by Bliss Independence Model and <0.9 by Highest Single Agent Model))
